Measured values reported in ChEMBL document CHEMBL1133330, “N-benzylpyroglutamyl-L-phenylalanine derivatives as VCAM/VLA-4 antagonists” (Bioorg Med Chem Lett, 2000).

Experiments:
[1] = target: T1, Integrin alpha-4/beta-1 (Homo sapiens, UniProt P05556+P13612); assay: Antagonistic activity against VLA-4 binding to recombinant human VCAM by ramos cell assay; type: cell-based
[2] = target: T1, Integrin alpha-4/beta-1; assay: Antagonistic activity against VLA-4 (derived from ramos cells) binding to recombinant human VCAM by ELISA assay; type: cell-based

T1 sequence (P05556 whole entry): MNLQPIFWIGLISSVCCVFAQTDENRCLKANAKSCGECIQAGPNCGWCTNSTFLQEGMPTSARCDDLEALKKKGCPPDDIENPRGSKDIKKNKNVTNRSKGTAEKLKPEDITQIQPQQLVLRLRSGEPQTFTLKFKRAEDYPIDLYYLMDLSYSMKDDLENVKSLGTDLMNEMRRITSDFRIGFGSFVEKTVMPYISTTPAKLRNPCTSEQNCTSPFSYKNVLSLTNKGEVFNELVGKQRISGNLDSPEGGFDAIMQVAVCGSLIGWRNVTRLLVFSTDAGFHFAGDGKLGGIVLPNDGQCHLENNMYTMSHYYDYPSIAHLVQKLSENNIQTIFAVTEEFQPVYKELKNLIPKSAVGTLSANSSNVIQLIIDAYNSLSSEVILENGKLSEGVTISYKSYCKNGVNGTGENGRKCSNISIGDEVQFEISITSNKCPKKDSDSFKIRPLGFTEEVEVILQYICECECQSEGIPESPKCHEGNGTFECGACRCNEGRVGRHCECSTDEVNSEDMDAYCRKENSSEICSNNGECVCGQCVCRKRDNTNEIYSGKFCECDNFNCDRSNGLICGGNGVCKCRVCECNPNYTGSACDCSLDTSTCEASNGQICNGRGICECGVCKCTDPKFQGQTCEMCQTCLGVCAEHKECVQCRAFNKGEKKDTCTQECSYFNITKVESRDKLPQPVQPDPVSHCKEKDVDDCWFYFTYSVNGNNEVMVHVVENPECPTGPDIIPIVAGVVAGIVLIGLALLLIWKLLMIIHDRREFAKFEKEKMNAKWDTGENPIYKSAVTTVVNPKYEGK
T1 sequence (P13612 whole entry): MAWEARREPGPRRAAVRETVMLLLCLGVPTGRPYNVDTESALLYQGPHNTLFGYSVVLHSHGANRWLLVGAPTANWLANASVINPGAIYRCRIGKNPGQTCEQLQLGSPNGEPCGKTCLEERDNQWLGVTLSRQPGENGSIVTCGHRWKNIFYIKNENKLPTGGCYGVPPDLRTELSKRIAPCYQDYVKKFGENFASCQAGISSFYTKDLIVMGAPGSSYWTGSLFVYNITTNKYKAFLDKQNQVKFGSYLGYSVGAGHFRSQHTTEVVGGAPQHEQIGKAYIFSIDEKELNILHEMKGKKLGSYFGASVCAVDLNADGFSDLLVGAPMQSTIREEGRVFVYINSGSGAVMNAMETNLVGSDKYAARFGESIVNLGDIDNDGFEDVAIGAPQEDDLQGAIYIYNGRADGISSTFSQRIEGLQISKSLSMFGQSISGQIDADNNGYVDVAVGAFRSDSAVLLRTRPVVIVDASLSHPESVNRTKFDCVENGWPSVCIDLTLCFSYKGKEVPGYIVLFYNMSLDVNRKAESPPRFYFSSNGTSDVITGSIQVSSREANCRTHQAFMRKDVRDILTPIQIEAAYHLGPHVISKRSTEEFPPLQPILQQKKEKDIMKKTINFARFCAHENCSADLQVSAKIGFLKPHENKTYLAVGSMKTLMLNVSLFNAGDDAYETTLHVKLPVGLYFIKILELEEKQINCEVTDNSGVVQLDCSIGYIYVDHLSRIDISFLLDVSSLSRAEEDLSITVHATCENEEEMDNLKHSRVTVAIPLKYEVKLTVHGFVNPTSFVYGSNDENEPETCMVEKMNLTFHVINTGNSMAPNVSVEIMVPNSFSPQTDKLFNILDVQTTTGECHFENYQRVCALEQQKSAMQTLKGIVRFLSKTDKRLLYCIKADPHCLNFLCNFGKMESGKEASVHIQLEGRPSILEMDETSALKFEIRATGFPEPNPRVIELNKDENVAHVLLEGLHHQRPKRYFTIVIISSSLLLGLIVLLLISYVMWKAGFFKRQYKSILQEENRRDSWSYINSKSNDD

SMILES	IC50 [1] [nM]	IC50 [2] [nM]
Cc1ccc([N+](=O)[O-])c(C(=O)Nc2ccc(C[C@H](NC(=O)C3CCC(=O)N3Cc3ccccc3)C(=O)O)cc2)c1 (stereo partly drawn)	77	0.74
Cc1ccc([N+](=O)[O-])cc1C(=O)Nc1ccc(C[C@H](NC(=O)C2CCC(=O)N2Cc2ccccc2)C(=O)O)cc1 (stereo partly drawn)	11	0.26
O=C(O)[C@H](Cc1ccc([N+](=O)[O-])cc1)NC(=O)[C@@H]1CCC(=O)N1Cc1ccccc1		560
O=C(O)[C@H](Cc1ccc(NS(=O)(=O)c2ccc([N+](=O)[O-])cc2)cc1)NC(=O)[C@@H]1CCC(=O)N1Cc1ccccc1	16000	17
O=C(Nc1ccc(C[C@H](NC(=O)C2CCC(=O)N2Cc2ccccc2)C(=O)O)cc1)c1cc(F)c(F)cc1F (stereo partly drawn)	127	1.6
O=C(O)[C@H](Cc1cccc2ccccc12)NC(=O)[C@@H]1CCC(=O)N1Cc1ccccc1		230
CC1CCC(C[C@H](NC(=O)[C@@H]2CCC(=O)N2Cc2ccccc2)C(=O)O)CC1 (stereo partly drawn)		42500
O=C(O)[C@H](Cc1ccc(COc2ccc([N+](=O)[O-])cc2)cc1)NC(=O)[C@@H]1CCC(=O)N1Cc1ccccc1		32
O=C(O)[C@H](Cc1ccc(CCc2ccccc2)cc1)NC(=O)[C@@H]1CCC(=O)N1Cc1ccccc1		38
O=C(O)[C@H](Cc1ccc(C#Cc2ccccc2)cc1)NC(=O)[C@@H]1CCC(=O)N1Cc1ccccc1		53
O=C(O)[C@H](Cc1ccc2c(c1)OCO2)NC(=O)[C@@H]1CCC(=O)N1Cc1ccccc1		220
N#Cc1ccc(C[C@H](NC(=O)[C@@H]2CCC(=O)N2Cc2ccccc2)C(=O)O)cc1		1000
O=C(Nc1ccc(C[C@H](NC(=O)[C@@H]2CCC(=O)N2Cc2ccccc2)C(=O)O)cc1)c1ccccc1	310	6.3
O=C(Nc1ccc(C[C@H](NC(=O)C2CCC(=O)N2Cc2ccccc2)C(=O)O)cc1)c1ccnc2ccccc12 (stereo partly drawn)	80	1.4
COc1ccc(-c2cccnc2C(=O)Nc2ccc(C[C@H](NC(=O)C3CCC(=O)N3Cc3ccccc3)C(=O)O)cc2)cc1 (stereo partly drawn)	29	0.88
O=C(O)[C@H](Cc1ccccc1)NC(=O)[C@@H]1CCC(=O)N1Cc1ccccc1		460
O=C(O)[C@H](Cc1ccc(OCc2ccc([N+](=O)[O-])cc2)cc1)NC(=O)[C@@H]1CCC(=O)N1Cc1ccccc1		18

Next, values leading:

IC50 [1] [nM]	IC50 [2] [nM]	SMILES
28	0.75	O=C(Nc1ccc(C[C@H](NC(=O)C2CCC(=O)N2Cc2ccccc2)C(=O)O)cc1)c1ccc(F)cc1C(F)(F)F (stereo partly drawn)
	74	[N-]=[N+]=NCc1ccc(C[C@H](NC(=O)[C@@H]2CCC(=O)N2Cc2ccccc2)C(=O)O)cc1
2100	8.2	CC(=O)N[C@@H](Cc1ccc(O)cc1)C(=O)Nc1ccc(C[C@H](NC(=O)[C@@H]2CCC(=O)N2Cc2ccccc2)C(=O)O)cc1
	59	O=C(O)[C@H](Cc1ccc2ccccc2c1)NC(=O)[C@@H]1CCC(=O)N1Cc1ccccc1
33	2.4	Cc1ccc(C(=O)Nc2ccc(C[C@H](NC(=O)C3CCC(=O)N3Cc3ccccc3)C(=O)O)cc2)c(Cl)n1 (stereo partly drawn)
102	2.4	COc1ccc(C(=O)Nc2ccc(C[C@H](NC(=O)C3CCC(=O)N3Cc3ccccc3)C(=O)O)cc2)c(OC)n1 (stereo partly drawn)
12	0.37	O=C(Nc1ccc(C[C@H](NC(=O)C2CCC(=O)N2Cc2ccccc2)C(=O)O)cc1)c1c(Cl)cccc1Cl (stereo partly drawn)
1060	3.5	NS(=O)(=O)c1ccc(C(=O)Nc2ccc(C[C@H](NC(=O)C3CCC(=O)N3Cc3ccccc3)C(=O)O)cc2)cc1 (stereo partly drawn)
1850	4	O=C(Nc1ccc(C[C@H](NC(=O)C2CCC(=O)N2Cc2ccccc2)C(=O)O)cc1)c1cccnc1O (stereo partly drawn)
	53	O=C(NCc1ccc(C[C@H](NC(=O)[C@@H]2CCC(=O)N2Cc2ccccc2)C(=O)O)cc1)c1cccnc1
54	1.1	O=C(Nc1ccc(C[C@H](NC(=O)C2CCC(=O)N2Cc2ccccc2)C(=O)O)cc1)c1cc(C(F)(F)F)ccc1C(F)(F)F (stereo partly drawn)
33	0.87	O=C(Nc1ccc(C[C@H](NC(=O)C2CCC(=O)N2Cc2ccccc2)C(=O)O)cc1)c1ccccc1[N+](=O)[O-] (stereo partly drawn)
1900	5.3	CC(=O)N[C@H](Cc1ccc(O)cc1)C(=O)Nc1ccc(C[C@H](NC(=O)[C@@H]2CCC(=O)N2Cc2ccccc2)C(=O)O)cc1
260	4.6	N#Cc1cccc(C(=O)Nc2ccc(C[C@H](NC(=O)C3CCC(=O)N3Cc3ccccc3)C(=O)O)cc2)c1 (stereo partly drawn)
7	0.37	O=C(Nc1ccc(C[C@H](NC(=O)C2CCC(=O)N2Cc2ccccc2)C(=O)O)cc1)c1ccc(Cl)cc1[N+](=O)[O-] (stereo partly drawn)
260	3.6	O=C(Nc1ccc(C[C@H](NC(=O)C2CCC(=O)N2Cc2ccccc2)C(=O)O)cc1)c1ccccn1 (stereo partly drawn)
28	0.82	COc1ccc([N+](=O)[O-])cc1C(=O)Nc1ccc(C[C@H](NC(=O)C2CCC(=O)N2Cc2ccccc2)C(=O)O)cc1 (stereo partly drawn)
560	2.2	O=C(Nc1ccc(C[C@H](NC(=O)[C@@H]2CCC(=O)N2Cc2ccccc2)C(=O)O)cc1)c1ccc([N+](=O)[O-])cc1
	90	O=C(O)[C@H](Cc1ccc(/C=C/c2ccc([N+](=O)[O-])cc2)cc1)NC(=O)[C@@H]1CCC(=O)N1Cc1ccccc1
	152	O=C(O)[C@H](Cc1ccc(CO)cc1)NC(=O)[C@@H]1CCC(=O)N1Cc1ccccc1
	20	CC(=O)N[C@@H](Cc1ccc(O)cc1)C(=O)NCc1ccc(C[C@H](NC(=O)[C@@H]2CCC(=O)N2Cc2ccccc2)C(=O)O)cc1
26000	20	O=C(O)[C@H](Cc1ccc(NS(=O)(=O)c2cccc(C(F)(F)F)c2)cc1)NC(=O)[C@@H]1CCC(=O)N1Cc1ccccc1
	160	COc1ccc(C[C@H](NC(=O)[C@@H]2CCC(=O)N2Cc2ccccc2)C(=O)O)cc1
